Assay results as given in ChEMBL document CHEMBL1201862, “PubChem BioAssay data set” (2004).
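All cell lines were grown in 96-well plates and treated with compound for 48 hours. Here, GI50 denotes the concentration required for 50% inhibition of growth.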 Active and inactive are the calls of the source. Rule as the data show it: active = GI50 up to about 1.1 µM and inactive = higher.

Legend:
Assay in all cases: inhibition of tumour cell growth, NCI panel, 48 h
MDA-MB-435 = test system: MDA-MB-435
UACC-257 = test system: UACC-257
PC-3 = test system: PC-3
HL-60 = test system: HL-60
LOX IMVI = test system: LOX IMVI
HOP-92 = test system: HOP-92
DU-145 = test system: DU-145
IGROV-1 = test system: IGROV-1
SN12C = test system: SN12C
NCI-H522 = test system: NCI-H522
786-0 = test system: 786-0
U-251 = test system: U-251
HOP-62 = test system: HOP-62
SF-295 = test system: SF-295
A549 = test system: A549
UACC-62 = test system: UACC-62
SW-620 = test system: SW-620
CAKI-1 = test system: CAKI-1
SF-539 = test system: SF-539
KM12 = test system: KM12

Measured: GI50

CC(=O)Oc1ccc2c(c1)CC[C@@H]1C2[C@@H](O[N+](=O)[O-])C[C@@]2(C)C1CC[C@@H]2O[N+](=O)[O-] (stereo not given in full)
inactive: MDA-MB-435 15.5 µM | UACC-257 11.1 µM | PC-3 10.5 µM | HL-60 16.4 µM | LOX IMVI 13.7 µM | HOP-92 10.1 µM | DU-145 14.2 µM | IGROV-1 15.1 µM | SN12C 15.5 µM | NCI-H522 11.1 µM | 786-0 14.5 µM | U-251 14 µM | HOP-62 6.82 µM | SF-295 10.7 µM | A549 13.2 µM | UACC-62 13.9 µM | SW-620 16.1 µM | CAKI-1 19.3 µM | SF-539 18.2 µM | KM12 14.1 µM

OC(c1ccccc1)c1c(-c2ccccc2)oc(-c2ccccc2)c1C(O)c1ccccc1 (stereo not given)
inactive: MDA-MB-435 8.04 µM | PC-3 9.33 µM | HL-60 3.26 µM | LOX IMVI 11.1 µM | HOP-92 13.4 µM | DU-145 13.7 µM | IGROV-1 14 µM | SN12C 6.22 µM | NCI-H522 3.15 µM | 786-0 9.06 µM | U-251 14 µM | HOP-62 14.4 µM | SF-295 15.1 µM | A549 5.73 µM | UACC-62 11.2 µM | SW-620 14.7 µM | CAKI-1 15.2 µM | SF-539 16.7 µM | KM12 7.24 µM

COc1ccc(-n2c(=O)[nH]n(C(C)=O)c2=O)cc1
inactive: MDA-MB-435 > 100 µM | UACC-257 > 100 µM | PC-3 > 100 µM | HL-60 > 100 µM | LOX IMVI > 100 µM | HOP-92 > 100 µM | DU-145 > 100 µM | IGROV-1 > 100 µM | SN12C > 100 µM | NCI-H522 > 100 µM | 786-0 > 100 µM | U-251 > 100 µM | SF-295 > 100 µM | A549 > 100 µM | UACC-62 > 100 µM | SW-620 > 100 µM | CAKI-1 > 100 µM | SF-539 > 100 µM | KM12 > 100 µM

COc1ccc(CNNC(=O)c2cc[n+]([BH2-]C#N)cc2)cc1OC
inactive: MDA-MB-435 > 100 µM | UACC-257 > 100 µM | PC-3 > 100 µM | HL-60 > 100 µM | LOX IMVI > 100 µM | HOP-92 > 100 µM | DU-145 > 100 µM | IGROV-1 > 100 µM | SN12C > 100 µM | NCI-H522 > 100 µM | 786-0 > 100 µM | U-251 > 100 µM | SF-295 > 100 µM | A549 > 100 µM | UACC-62 > 100 µM | SW-620 > 100 µM | CAKI-1 > 100 µM | SF-539 > 100 µM | KM12 > 100 µM

c1ccc([I+]c2ccccc2)cc1
inactive: MDA-MB-435 > 100 µM | UACC-257 > 100 µM | PC-3 > 100 µM | HL-60 > 100 µM | LOX IMVI > 100 µM | HOP-92 70 µM | DU-145 > 100 µM | IGROV-1 > 100 µM | SN12C > 100 µM | NCI-H522 > 100 µM | 786-0 > 100 µM | U-251 > 100 µM | HOP-62 > 100 µM | SF-295 > 100 µM | A549 > 100 µM | SW-620 > 100 µM | CAKI-1 > 100 µM | SF-539 > 100 µM | KM12 > 100 µM

COC(=O)C(Cc1ccccc1)C(=O)NC(CNC(=O)OCc1ccccc1)C(=O)OCc1ccccc1 (stereo not given)
inactive: MDA-MB-435 21.8 µM | UACC-257 17.6 µM | PC-3 38.2 µM | HL-60 30.9 µM | LOX IMVI 19.6 µM | HOP-92 32.1 µM | DU-145 66.5 µM | IGROV-1 65.6 µM | SN12C 49.8 µM | NCI-H522 26.7 µM | 786-0 25.9 µM | U-251 49.1 µM | HOP-62 > 100 µM | SF-295 47.1 µM | UACC-62 23.6 µM | SW-620 38.1 µM | CAKI-1 36.8 µM | SF-539 40.6 µM | KM12 58.9 µM

COc1ccc(N[C@H](C[S+]([O-])c2ccc(C)cc2)C(F)(F)F)cc1 (stereo not given in full)
inactive: MDA-MB-435 > 100 µM | UACC-257 > 100 µM | PC-3 > 100 µM | HL-60 > 100 µM | LOX IMVI > 100 µM | HOP-92 > 100 µM | DU-145 > 100 µM | IGROV-1 > 100 µM | SN12C > 100 µM | NCI-H522 > 100 µM | 786-0 > 100 µM | U-251 > 100 µM | SF-295 > 100 µM | A549 > 100 µM | UACC-62 > 100 µM | SW-620 > 100 µM | CAKI-1 > 100 µM | SF-539 > 100 µM | KM12 > 100 µM

CCOc1cc(C2CC(c3ccc(NS(=O)(=O)c4cc([N+](=O)[O-])ccc4C)cc3)=NN2C(=O)c2ccccc2)ccc1O (stereo not given)
inactive: MDA-MB-435 28.1 µM | UACC-257 18.2 µM | PC-3 17.5 µM | HL-60 17.2 µM | LOX IMVI 26.9 µM | HOP-92 14.8 µM | DU-145 32.7 µM | IGROV-1 10.6 µM | SN12C 22.3 µM | NCI-H522 14.8 µM | 786-0 23.1 µM | U-251 18.7 µM | HOP-62 17.1 µM | SF-295 20.8 µM | A549 17.8 µM | SW-620 32.8 µM | CAKI-1 24.7 µM | SF-539 20.9 µM | KM12 30.3 µM

COC(NC(=O)Nc1ccccc1C)(C(F)(F)F)C(F)(F)F
inactive: MDA-MB-435 > 100 µM | PC-3 56.4 µM | HL-60 > 100 µM | LOX IMVI > 100 µM | HOP-92 > 100 µM | DU-145 > 100 µM | IGROV-1 > 100 µM | SN12C > 100 µM | NCI-H522 30.4 µM | 786-0 > 100 µM | U-251 34.5 µM | HOP-62 > 100 µM | SF-295 > 100 µM | A549 > 100 µM | UACC-62 56.6 µM | SW-620 > 100 µM | SF-539 > 100 µM | KM12 > 100 µM

CC1(C)Oc2ccc(NC(=O)CCC(N)C(=O)O)cc2O1 (stereo not given)
inactive: MDA-MB-435 > 100 µM | PC-3 > 100 µM | HL-60 > 100 µM | LOX IMVI > 100 µM | HOP-92 > 100 µM | DU-145 > 100 µM | IGROV-1 > 100 µM | SN12C > 100 µM | NCI-H522 > 100 µM | 786-0 > 100 µM | U-251 > 100 µM | HOP-62 > 100 µM | SF-295 > 100 µM | A549 > 100 µM | UACC-62 > 100 µM | SW-620 > 100 µM | CAKI-1 > 100 µM | SF-539 > 100 µM | KM12 > 100 µM
